Experimental data as given in patent US20250186467A1, “METHODS OF TREATING MEDICAL CONDITIONS USING STAMPIDINE OR A RELATED COMPOUND” (ROME Therapeutics, Inc., priority 2022, published 2025).

How the values were obtained:
[1] = target: HERV-K reverse transcriptase (Homo sapiens, UniProt V9H0F6); assay: Homogeneous time-resolved fluorescence (HTRF) HERV-K RT assay; type: biochemical; settings: HERV-K reverse transcriptase (2-596)-8His protein, read-out: IC50, inhibition of HERV-K reverse transcriptase
Protocol: The HERV-K reverse transcriptase homogeneous time-resolved fluorescence (HTRF) assay was performed in a 384-well format with HERV-K reverse transcriptase (2-596)-8His protein. Baculoviruses were created using Bac-to-Bac technology (Invitrogen). pFastBac donor plasmids containing HERV-K reverse transcriptase sequence (NCBI GenBank number AAC63291.1, J. Virology (1999) Vol. 73, No. 3, pp. 2365-2375) were transformed into DH10 Bac cells following the manufacturer's instructions. Recombinant bacmids were then isolated clonally and transfected into SF9 cells with lipofectin. HERV-K reverse transcriptase was expressed in the SF9 insect cells and then purified using immobilized metal affinity chromatography (IMAC) followed by size-exclusion chromatography (SEC). […]
(§1) After incubating at 25° C. for 30 minutes, the detection reagent 20 mM EDTA with streptavidin-terbium cryptate (Cisbio Bioassay) in the PPI buffer (Cisbio Bioassay) was added, and the mixture was incubated at 25° C. for 30 minutes. At the end of the incubation, fluorescence was read at ex/em=337/485 nm and ex/em=337/520 nm on an Envision 2104 plate reader (Perkin Elmer). The fluorescence ratio at 520/485 nm was used for the calculation. […] The IC50 was calculated by fitting the compound dose inhibition curve with a 4-parameter non-linear regression equation.

[2] = target: T1, LINE1 reverse transcriptase (Homo sapiens, UniProt O00370); assay: Transient artificial-intron Cis LINE1 reporter assay; type: cell-based; design: expressed in transfected cells; settings: HEK 293 cells, ratio FLuc/RLuc reports LINE1 activity; read-out: IC50, inhibition of FLuc (FF/RR)
Protocol: Intron-disrupted Firefly luciferase (FLuc) expression cassettes were generated as described by Xie, Y. et al. “Characterization of L1 retrotransposition with high-throughput dual-luciferase assays,” Nucleic Acid Res. (2011) Vol. 39, No. 3, e16. In addition, the plasmid contained an intact Renilla luciferase (RLuc) expression cassette on the vector backbone, in order to normalize transfection efficiency and measure potential cell toxicity.
HEK 293 cells were seeded in 96-well plates at 1,000 cells/well in 55 μL and grown for 24 hours. Cells were transfected with FuGeneHD (Promega) following the manufacturer's protocol. Each well received 0.133 ng plasmid, 0.4 μL FuGeneHD reagent, and 4.5 μL GlutaMAX-I-supplemented Opti-MEM I reduced-serum medium (Invitrogen). Cells were simultaneously treated with test compound serially diluted starting at 100 μM in a 3-fold dilution dose response.
Luminescence was measured using the Dual-Glo Luciferase Assay System (Promega) following the manufacturer's instructions. The ratio between FLuc and RLuc gene expression was used to report LINE1 activity.

[3] = tested on: THP1-Dual KO-TREX1 cells; assay: CellTiter-Glo cell viability in THP1 TREX1 KO cells; type: cell-based; settings: highest dose, with 1 μM 5-aza-2′-deoxycytidine, five days
Protocol: THP1 Dual TREX1 KO cells were purchased from Invivogen. The THP1-Dual™ KO-TREX1 cells were cultured in RPMI 1640, 10% heat-inactivated fetal bovine serum, 25 mM HEPES, 10 μg/mL Blasticidin, and 100 μg/mL Zeocin. THP1-Dual™ KO-TREX1 cells were treated with a dose titration of test compound in the presence of 1 μM 5-aza-2′-deoxycytidine (Sigma, cat #189825). Type 1 Interferon and cell viability were assessed after five days of treatment.
Stock solution of test compound was prepared in DMSO followed by a three-fold dilution in DMSO. Additional 50× dilution was prepared in cell culture media for each dilution. 10 μL of diluted test compound was then added to a 384-well plate.
THP1-Dual™ KO-TREX1 cells were treated with 1 μM 5-aza-2′-deoxycytidine. THP1-Dual™ KO-TREX1 cells (50 μL) were added to each well of the 384-well plate containing test compound titration at 10,000 cells/well. Cells were incubated at 37° C., 5% CO2 in a humidified incubator for five days. […] Luminescence was detected on a plate reader according to manufacturer's instructions. […]
The remaining cells were assessed for cell viability by adding 30 μl of CellTiter-Glo (Promega, 09683) solution to each well, and placed on a shaker for 10 minutes at room temperature. Luminescence was detected on a plate reader, according to manufacturer's instructions. […]

[4] = target: T1, LINE1 reverse transcriptase; assay: Homogeneous time-resolved fluorescence (HTRF) LINE1 RT assay; type: biochemical; design: recombinant MBP-tagged LINE1 protein (238-1061); MBP; made in house; settings: recombinant MBP-tagged LINE1 protein (238-1061), read-out: IC50, inhibition of LINE1 reverse transcriptase
Protocol: The LINE1 reverse transcriptase homogeneous time-resolved fluorescence (HTRF) assay was performed with recombinant MBP-tagged LINE1 protein (238-1061) (generated and purified according to procedures in Dai L. et al. BMC Biochemistry 2011; 12:18) in a 384-well format. Test compound was serially diluted in DMSO and further diluted in the assay buffer (50 mM Tris-HCl, 50 mM KCl, 10 mM MgCl2, 10 mM DTT, pH 8.1) to achieve a final DMSO concentration of 1%. The serially diluted compound was mixed with 64 ng/well of LINE1 enzyme, 5 nM of pre-annealed template/biotin-primer pair (synthesized at Generay Biotechnology), 10 nM of Fluorescein-12-dATP fluorescent probe (Perkin Elmer), and 1 μM dGTP/dCTP/dTTP (Thermo Fisher Scientific) in the assay buffer. The template/biotin-primer sequences were as follows:
as §1, with “C. for 60 minutes, the” for “C. for 30 minutes, the”, “detection reagent (20 mM EDTA” for “detection reagent 20 mM EDTA”, “with streptavidin-terbium cryptate, Cisbio Bioassay) in” for “with streptavidin-terbium cryptate (Cisbio Bioassay) in”

[5] = target: T1, LINE1 reverse transcriptase; assay: Stable artificial-intron Cis LINE1 reporter assay; type: cell-based; design: expressed in transfected cells; host or cells: HeLa Tet-On 3G (Takara, cat no 631183); settings: HeLa L1 artificial-intron reporter cells, doxycycline induced, 72 h, Firefly luciferase; read-out: IC50, inhibition of LINE1 reverse transcriptase
Description: A stable HeLa Tet-On 3G (Takara, cat no 631183) cell line expressing a bi-directional inducible LINE1 construct was generated as described in Xie, Y. et al. “Cell division promotes efficient retrotransposition in a stable L1 reporter cell line,” Mobile DNA (2013) 4:10. Single cell clones were screened for high Luciferase expression and the highest expression Firefly expressing clone was chosen for compound testing.
Test compound was serially diluted in DMSO and spotted in 96-well plates. Subsequently the HeLa L1 artificial-intron reporter cells were plated into the compound-containing wells (8,000 cells/well), and the cells were induced for reporter expression with doxycycline (Sigma cat no D9891) at a final concentration of 500 ng/mL. Luminescence was measured 72 h after plating using the Dual-Glo Luciferase Assay System (Promega cat no E2940) following the manufacturer's instructions. The Firefly Luciferase activity was used to report LINE1 activity.

HERV-K reverse transcriptase, sequence (V9H0F6 entry or part of it): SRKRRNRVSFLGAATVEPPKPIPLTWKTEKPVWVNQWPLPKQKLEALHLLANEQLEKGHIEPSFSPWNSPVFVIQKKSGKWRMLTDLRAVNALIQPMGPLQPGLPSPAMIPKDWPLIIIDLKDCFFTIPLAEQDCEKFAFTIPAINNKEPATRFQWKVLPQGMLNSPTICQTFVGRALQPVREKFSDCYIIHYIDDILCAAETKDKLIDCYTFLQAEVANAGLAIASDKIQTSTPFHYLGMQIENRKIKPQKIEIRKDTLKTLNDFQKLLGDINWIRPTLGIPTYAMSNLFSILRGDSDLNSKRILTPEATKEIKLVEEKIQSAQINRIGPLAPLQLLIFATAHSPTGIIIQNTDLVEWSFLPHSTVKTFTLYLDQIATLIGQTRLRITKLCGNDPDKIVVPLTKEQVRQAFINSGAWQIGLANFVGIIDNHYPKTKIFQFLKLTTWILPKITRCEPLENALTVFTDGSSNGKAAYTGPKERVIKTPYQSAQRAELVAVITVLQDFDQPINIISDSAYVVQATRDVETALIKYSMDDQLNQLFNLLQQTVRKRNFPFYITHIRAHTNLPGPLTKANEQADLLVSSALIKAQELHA

How did the IC50 [1] turn out when `Cc1cn([C@H]2C=C[C@@H](COP(=O)(O)OP(=O)(O)OP(=O)(O)O)O2)c(=O)[nH]c1=O` [drawing 39] was run?
The IC50 was 42 nM.

With `COC(=O)[C@H](C)NP(=O)(OC[C@@H]1C=C[C@H](n2cc(C)c(=O)[nH]c2=O)O1)Oc1ccc(Br)cc1` (some centres unmarked) [drawing 36] as the molecule, how does the IC50 [2] read?
The IC50 was 5.7 nM.

`Cc1cn([C@H]2C=C[C@@H](CO)O2)c(=O)[nH]c1=O` [stavudine, 1-((2R,5S)-5-(hydroxymethyl)-2,5-dihydrofuran-2-yl)-5-methylpyrimidine-2,4(1H,3H)-dione, reference compound] was tested. Which “reduction in cell viability” value [3] did it give?
Its value is roughly 10%.

Which IC50 [4] does the source give for `Cc1cn([C@H]2C=C[C@@H](COP(=O)(O)OP(=O)(O)OP(=O)(O)O)O2)c(=O)[nH]c1=O` [drawing 38] here?
Its IC50 is 23 nM.

With `COC(=O)[C@H](C)NP(=O)(OC[C@@H]1C=C[C@H](n2cc(C)c(=O)[nH]c2=O)O1)Oc1ccc(Br)cc1` (some centres unmarked) [drawing 37] as the molecule, how does the IC50 [5] read?
The IC50 was 17 nM.
